Among the test systems are ACHN renal; BT-549 breast; DU-145 prostate; K-562 leukemia; NCI-H23 lung; OVCAR-3 ovarian; OVCAR-5 ovarian; OVCAR-8 ovarian; RXF 393 renal; SF-268 CNS; SF-295 CNS; SK-MEL-28 melanoma; SK-MEL-5 melanoma; SK-OV-3 ovarian; SNB-19 CNS; SNB-75 CNS; TK-10 renal; CAKI-1 renal; HL-60(TB) leukemia.
Test in all cases: DTP human tumour cell line panel, 48 h

The structures appear in SMILES notation.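 Exposure lasted 48 hours, with cells grown in 96-well plates and compounds tested at five concentrations. TGI is the concentration that stops growth completely.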

As usually defined, the TGI is the concentration at which net growth stops. `CCN1C(=O)/C(=C2\SC(c3ccccc3)(c3ccccc3)c3ccccc32)SC1=S`: the TGI in the experiment with ACHN renal, in the experiment with BT-549 breast, in the experiment on DU-145 prostate, in the experiment on K-562 leukemia, with NCI-H23 lung and in the experiment on OVCAR-3 ovarian was more than 100 µM in each case. Moreover, the TGI in the experiment on OVCAR-5 ovarian, in the experiment with OVCAR-8 ovarian, with RXF 393 renal, with SF-268 CNS, in the experiment with SF-295 CNS and with SK-MEL-28 melanoma was more than 100 µM throughout. Moreover, the total growth inhibition concentration (TGI) in the experiment on SK-MEL-5 melanoma, in the experiment with SK-OV-3 ovarian, with SNB-19 CNS, in the experiment on SNB-75 CNS and with TK-10 renal was more than 100 µM in each case.
With `O=c1c2ccccc2nc2n1C(c1ccc([N+](=O)[O-])cc1)C2(c1ccccc1)c1ccccc1` (stereo not given), the TGI in the experiment with ACHN renal, in the experiment on BT-549 breast, with CAKI-1 renal, in the experiment on DU-145 prostate, in the experiment on HL-60(TB) leukemia and with NCI-H23 lung was more than 100 µM throughout. The TGI in the experiment on OVCAR-3 ovarian, in the experiment with OVCAR-5 ovarian, in the experiment on OVCAR-8 ovarian, in the experiment with RXF 393 renal, with SF-268 CNS and in the experiment with SF-295 CNS was more than 100 µM throughout. The TGI in the experiment with SK-MEL-28 melanoma, in the experiment on SK-MEL-5 melanoma, in the experiment with SK-OV-3 ovarian, with SNB-19 CNS and in the experiment on TK-10 renal was more than 100 µM throughout.
Consider `CCC/C(Cl)=N\OC(=O)Nc1cccc(C(F)(F)F)c1`, for which the TGI turned out to be 29.8 µM in the experiment with ACHN renal; 24.7 µM in the experiment on BT-549 breast; 33.1 µM in the experiment on CAKI-1 renal; 17.8 µM in the experiment on DU-145 prostate; 41.1 µM in the experiment on NCI-H23 lung; 40.2 µM in the experiment on OVCAR-3 ovarian. Also, the TGI with OVCAR-5 ovarian is 46.1 µM; in the experiment on OVCAR-8 ovarian, 32.3 µM; in the experiment on RXF 393 renal, 33.8 µM; in the experiment with SF-268 CNS it was 67.8 µM; in the experiment with SF-295 CNS, 19.5 µM; in the experiment on SK-MEL-28 melanoma, 37.6 µM. Also, the TGI in the experiment on SK-MEL-5 melanoma is 28.9 µM; with SK-OV-3 ovarian, 18 µM; with SNB-19 CNS, more than 100 µM; with SNB-75 CNS it was 24.3 µM; in the experiment with TK-10 renal it was 28.8 µM.
Take `COc1cc(/C=C/c2nc(N)nnc2C)cc(OC)c1OC`: the TGI with ACHN renal is more than 56.1 µM; in the experiment on BT-549 breast it was more than 64 µM; in the experiment on CAKI-1 renal, more than 100 µM; in the experiment with DU-145 prostate it was more than 100 µM; in the experiment on HL-60(TB) leukemia, 8.36 µM; with K-562 leukemia, 71.2 µM. Moreover, the total growth inhibition concentration (TGI) is more than 68.1 µM in the experiment with NCI-H23 lung; more than 58.9 µM in the experiment with OVCAR-5 ovarian; more than 100 µM with OVCAR-8 ovarian; more than 64.4 µM with RXF 393 renal; more than 54.4 µM in the experiment with SF-268 CNS; more than 72.6 µM in the experiment on SF-295 CNS. Also, the TGI in the experiment with SK-MEL-28 melanoma is more than 100 µM; with SK-MEL-5 melanoma, 52.2 µM; in the experiment with SK-OV-3 ovarian it was more than 65.6 µM; with SNB-19 CNS, more than 82.2 µM; with TK-10 renal, more than 77.3 µM.
In the case of `COc1c2c(cc3c1OCO3)C13C=CC(OC)CC1N(CC3)C2` (stereo not given), the concentration for total growth inhibition (TGI) in the experiment with ACHN renal, in the experiment with BT-549 breast, in the experiment with CAKI-1 renal, with DU-145 prostate, in the experiment with HL-60(TB) leukemia and with NCI-H23 lung was more than 100 µM in each case. For the same molecule, the TGI in the experiment on OVCAR-3 ovarian, in the experiment with OVCAR-5 ovarian, in the experiment on OVCAR-8 ovarian, with RXF 393 renal, in the experiment on SF-268 CNS and in the experiment on SF-295 CNS was more than 100 µM in each case. Further, the TGI in the experiment with SK-MEL-28 melanoma, in the experiment on SK-MEL-5 melanoma, with SK-OV-3 ovarian, in the experiment with SNB-19 CNS, with SNB-75 CNS and in the experiment on TK-10 renal was more than 100 µM each time.
Regarding `N=C(N)SCc1cc(Cl)cc(Cl)c1O`, the TGI was found to be 36.4 µM in the experiment with ACHN renal; 36.6 µM in the experiment with BT-549 breast; 33.3 µM with CAKI-1 renal; 36.2 µM in the experiment with DU-145 prostate; 21.1 µM with HL-60(TB) leukemia; 41.5 µM in the experiment on K-562 leukemia. The total growth inhibition concentration (TGI) in the experiment with NCI-H23 lung is 40.4 µM; with OVCAR-3 ovarian, 31.4 µM; in the experiment on OVCAR-5 ovarian, 40.3 µM; in the experiment with OVCAR-8 ovarian, 38.3 µM; in the experiment on RXF 393 renal it was 46.8 µM; in the experiment with SF-268 CNS it was 58.3 µM. For the same molecule, the TGI with SF-295 CNS is 55.7 µM; in the experiment on SK-MEL-28 melanoma, 46.4 µM; in the experiment with SK-MEL-5 melanoma it was 31.9 µM; with SK-OV-3 ovarian, more than 100 µM; in the experiment with SNB-19 CNS, 56.8 µM; with TK-10 renal, 35.4 µM.
As for `O=C(COc1ccc(OCC(=O)NNC2=NC(c3cc(F)c(Cl)cc3Cl)CS2)c(Cl)c1)NNC1=NC(c2cc(F)c(Cl)cc2Cl)CS1` (stereo not given), the TGI is more than 100 µM with ACHN renal; 66.1 µM with BT-549 breast; 59.8 µM with DU-145 prostate; more than 100 µM in the experiment with HL-60(TB) leukemia; more than 100 µM in the experiment on K-562 leukemia; 50.1 µM in the experiment on NCI-H23 lung. In addition, the TGI in the experiment with OVCAR-5 ovarian is more than 100 µM; in the experiment on OVCAR-8 ovarian, 64.5 µM; in the experiment on RXF 393 renal, 60.9 µM; with SF-295 CNS it was 71.6 µM; with SK-MEL-28 melanoma, 86.9 µM; in the experiment with SK-OV-3 ovarian, more than 100 µM. For the same molecule, the TGI with SNB-19 CNS and in the experiment on TK-10 renal was more than 100 µM in each case.
Regarding `CCOC(=O)C(=[N+]=[N-])C(=O)CN1C(=O)C2CC(C)=C(C)CC2C1O` (stereo not given), the TGI in the experiment on ACHN renal, with BT-549 breast, with DU-145 prostate, in the experiment on HL-60(TB) leukemia, with K-562 leukemia and in the experiment with NCI-H23 lung was more than 100 µM each time. Further, the TGI in the experiment with OVCAR-3 ovarian, in the experiment on OVCAR-5 ovarian, in the experiment on OVCAR-8 ovarian, in the experiment with RXF 393 renal, with SF-268 CNS and with SF-295 CNS was more than 100 µM throughout. For the same molecule, the TGI in the experiment with SK-MEL-28 melanoma, in the experiment on SK-MEL-5 melanoma, with SNB-19 CNS, in the experiment with SNB-75 CNS and in the experiment on TK-10 renal was more than 100 µM each time.

The values above are taken from PubChem BioAssay (NCI).
